# Activity calls are given as the source filed them. No cut-off for these calls is given here.
# Tested on: Plasmodium falciparum
# Test: Antiplasmodial activity after 18 hrs against chloroquine-resistant Plasmodium falciparum FcB1 in human blood by [3H]hypoxanthine uptake
# Assay type: functional, organism-based
Structure (SMILES),IC50 [µM],Activity
O=C(/C=C/c1ccc(O)cc1)c1ccc(O)cc1O [ISOLIQUIRITIGENIN],7.8,
COc1cc(CCCc2cccc(O)c2)c(OC)cc1O,,inactive
COc1cc(O)c([C@@H]2COc3cc(O)ccc3C2=O)cc1OC,,inactive
COc1cc(-c2coc3cc(O)ccc3c2=O)ccc1O,6.8,
C=C[C@@H](C1=CC(=O)C(OC)=CC1=O)c1ccccc1,5.8,
COc1cc2c(cc1O)[C@@H](C)[C@H](c1ccccc1)O2 [OBTUSAFURAN],8.7,
COc1cc(-c2cc3ccc(O)cc3oc2=O)c(O)cc1O,,inactive
COC1=CC(=O)C(O)=CC12CCCc1cc(O)ccc12 (stereo not drawn),,inactive
